# Several values for one entry are separate records, joined by “and”; a condition that tells them apart may be missing. Identical values can stand only once. Like-named read-outs stand apart in the source and are kept apart here.
# Tests used:
# [1] = test system: Pleurotus ostreatus mycelia CGMCC No. 6232; assay: Shake-flask fermentation, content of extracellular ergothioneine in the filtrate by HPLC
# Experimental: Seed medium: corn flour 30 g/L, soybean meal powder 15 g/L, α-amylase 80 U/L, KH2PO4 3 g/L, MgSO4.7H2O 1.5 g/L, and a balance of water. The seed medium was sterilized at 121° C. for 20 min, and the liquid volume in a 500 mL triangular flask was 150 mL. […] A lawn of the strain CGMCC No. 6232 was picked from the PDA slant and inoculated into the seed medium, cultured on a shaker at 150 rpm at 25° C. for 4 days, to obtain a seed liquor. […] The obtained permeate was the test sample for detection of the content of extracellular ergothioneine in the filtrate. […] The solutions were filtered with 0.22 μm millipore filter to obtain the reference solutions. Qualitative and quantitative detection: L-ergothioneine reference solutions and the test samples were detected by HPLC under the same chromatographic conditions. The chromatograms of the test samples were compared with those of the L-ergothioneine reference solutions, and the chromatographic peak of L-ergothioneine in the test sample was identified based on the retention time. A standard curve was plotted with the concentrations of L-ergothioneine reference solutions and the corresponding peak areas. In the case that the sample load of the reference solution was identical with that of the test sample, an external standard method was used for quantification so as to calculate the content of ergothioneine in the test sample. The concentration of ergothioneine in the test sample was the concentration of ergothioneine in the fermentation broth. Detection conditions: the chromatographic column was Agilent Eclipse XDB-C18 (4.6×250 mm, 5 μm), with two chromatographic columns in series; the mobile phase was 1% methanol solution, the pH of which was adjusted to 5.0 using acetic acid-sodium acetate buffer; the detection wavelength was 257 nm; the flow rate was 0.7 mL/min; the column temperature was 25° C.; and the sample load was 5 μL. […] Pleurotus ostreatus mycelia CGMCC No. 6232 were subjected to fermentation and culture.
# [2] = test system: Pleurotus ostreatus mycelia CGMCC No. 6232; assay: Shake-flask fermentation, total content of ergothioneine in the fermentation broth by HPLC; type: cell-based
compound,measurement,setting,value
"O=C(O)CN(CCN(CC(=O)O)CC(=O)O)CC(=O)O [EDTA, ethylenediaminetetraacetic acid]",content of extracellular ergothioneine in the filtrate,[1]; EDTA 0.5 g/L (highest),9.28 mg/L
"OC(Cn1cncn1)(Cn1cncn1)c1ccc(F)cc1F [Fluconazole, reference compound]",Content of ergothioneine in fermentation broth,[2]; Fluconazole 2 mg/L added in fermentation medium,131.6 ± 1.92 mg/L
same,Content of ergothioneine in fermentation broth,[2]; Fluconazole 5 mg/L added in fermentation medium,137.2 ± 2.51 mg/L
same,Content of ergothioneine in fermentation broth,[2]; Fluconazole 20 mg/L added in fermentation medium,141.3 ± 3.27 mg/L
same,Content of ergothioneine in fermentation broth,[2]; Fluconazole 50 mg/L added in fermentation medium,146.4 mg/L and 146.4 ± 3.41 mg/L
same,Content of ergothioneine in fermentation broth,[2]; Fluconazole 80 mg/L added in fermentation medium,132.7 ± 3.39 mg/L
same,activation at 50 µg/mL,"[2]; Pleurotus ostreatus, CGMCC6232, 360 h, Fluconazole 50 mg/L, read-out: content of ergothioneine improved compared with control group",19.6%
same,content of extracellular ergothioneine in the filtrate,[1]; Fluconazole 50 mg/L (highest),7.67 mg/L
"CC(=O)N1CCN(c2ccc(OCC3COC(Cn4ccnc4)(c4ccc(Cl)cc4Cl)O3)cc2)CC1 (centres unmarked) [Ketoconazole, reference compound]",Content of ergothioneine in fermentation broth,[2]; Ketoconazole 0.5 mg/L added in fermentation medium,127.6 ± 1.06 mg/L
same,Content of ergothioneine in fermentation broth,[2]; Ketoconazole 1 mg/L added in fermentation medium,130.7 ± 2.22 mg/L
same,Content of ergothioneine in fermentation broth,[2]; Ketoconazole 5 mg/L added in fermentation medium,134.1 mg/L and 134.1 ± 2.99 mg/L
same,Content of ergothioneine in fermentation broth,[2]; Ketoconazole 10 mg/L added in fermentation medium,132.5 ± 1.87 mg/L
same,Content of ergothioneine in fermentation broth,[2]; Ketoconazole 50 mg/L added in fermentation medium,128.9 ± 1.18 mg/L
same,activation at 5 µg/mL,"[2]; Pleurotus ostreatus, CGMCC6232, 360 h, Ketoconazole 5 mg/L, read-out: content of ergothioneine improved compared with control group",9.6%
same,content of extracellular ergothioneine in the filtrate,[1]; Ketoconazole 50 mg/L (highest),5.77 mg/L
"Clc1ccc(COC(Cn2ccnc2)c2ccc(Cl)cc2Cl)c(Cl)c1 (centres unmarked) [Miconazole, reference compound]",Content of ergothioneine in fermentation broth,[2]; Miconazole 0.5 mg/L added in fermentation medium,132.4 ± 2.96 mg/L
same,Content of ergothioneine in fermentation broth,[2]; Miconazole 1 mg/L added in fermentation medium,140.0 ± 3.28 mg/L
same,Content of ergothioneine in fermentation broth,[2]; Miconazole 5 mg/L added in fermentation medium,152.9 mg/L and 152.9 ± 4.22 mg/L
same,Content of ergothioneine in fermentation broth,[2]; Miconazole 10 mg/L added in fermentation medium,147.0 ± 3.09 mg/L
same,Content of ergothioneine in fermentation broth,[2]; Miconazole 15 mg/L added in fermentation medium,129.8 ± 2.11 mg/L
same,activation at 5 µg/mL,"[2]; Pleurotus ostreatus, CGMCC6232, 360 h, Miconazole 5 mg/L, read-out: content of ergothioneine improved compared with control group",24.9%
same,content of extracellular ergothioneine in the filtrate,[1]; Miconazole 50 mg/L (highest),9.14 mg/L
C[S+](C)[O-] [dimethyl sulfoxide],content of extracellular ergothioneine in the filtrate,[1]; dimethyl sulfoxide 2% (V/V) (highest),10.18 mg/L
CC(C)O [isopropyl alcohol],content of extracellular ergothioneine in the filtrate,[1]; isopropyl alcohol 2% (V/V) (highest),10.04 mg/L
CC(=O)C(=O)O [pyruvic acid],activation at 2200 µg/mL,"[2]; Pleurotus ostreatus, CGMCC6232, 360 h, pyruvic acid 2.2 g/L, read-out: content of ergothioneine improved compared with control group",5.9%
same,Content of ergothioneine in fermentation broth,[2]; pyruvic acid 0.05 g/L added in fermentation medium,127.4 ± 0.57 mg/L
same,Content of ergothioneine in fermentation broth,[2]; pyruvic acid 0.1 g/L added in fermentation medium,128.6 ± 1.03 mg/L
same,Content of ergothioneine in fermentation broth,[2]; pyruvic acid 0.5 g/L added in fermentation medium,130.4 ± 0.82 mg/L
same,Content of ergothioneine in fermentation broth,[2]; pyruvic acid 1.0 g/L added in fermentation medium,131.9 ± 1.43 mg/L
same,Content of ergothioneine in fermentation broth,[2]; pyruvic acid 2.2 g/L added in fermentation medium,132.7 mg/L and 132.7 ± 0.46 mg/L
same,Content of ergothioneine in fermentation broth,[2]; pyruvic acid 4.5 g/L added in fermentation medium,128.7 ± 0.69 mg/L
CCCCCCCC/C=C\CCCCCCCC(=O)OCCOCC(OCCO)C1OCC(OCCO)C1OCCO (centres unmarked) [tween 80],activation at 10000 µg/mL,"[2]; Pleurotus ostreatus, CGMCC6232, 360 h, tween 80 10 g/L, read-out: content of ergothioneine improved compared with control group",78.5%
same,Content of ergothioneine in fermentation broth,[2]; tween 80 0.5 g/L added in fermentation medium,130.2 ± 1.56 mg/L
same,Content of ergothioneine in fermentation broth,[2]; tween 80 2 g/L added in fermentation medium,155.9 ± 2.7 mg/L
same,Content of ergothioneine in fermentation broth,[2]; tween 80 5 g/L added in fermentation medium,181.8 ± 3.95 mg/L
same,Content of ergothioneine in fermentation broth,[2]; tween 80 10 g/L added in fermentation medium,217 mg/L and 217 ± 4.37 mg/L
same,Content of ergothioneine in fermentation broth,[2]; tween 80 20 g/L added in fermentation medium,170.9 ± 4.43 mg/L
same,Content of ergothioneine in fermentation broth,[2]; tween 80 40 g/L added in fermentation medium,130.9 ± 1.61 mg/L
same,content of extracellular ergothioneine in the filtrate,[1]; tween 80 10 g/L (highest),18.72 mg/L
NH4NO3,Content of ergothioneine in fermentation broth,[2],127.2 ± 1.18 mg/L and 134 ± 2.46 mg/L and 140.7 ± 3.74 mg/L and 148 ± 0.82 mg/L and 141.4 ± 1.98 mg/L and 129.7 ± 1.03 mg/L
same,content of ergothioneine improved compared with control group,[2],18.5%
span 80,Content of ergothioneine in fermentation broth,[2]; span 80 0.2 g/L added in fermentation medium,124.7 ± 2.59 mg/L
same,Content of ergothioneine in fermentation broth,[2]; span 80 0.5 g/L added in fermentation medium,156.3 ± 1.92 mg/L
same,Content of ergothioneine in fermentation broth,[2]; span 80 1 g/L added in fermentation medium,175.1 ± 2.83 mg/L
same,content of ergothioneine improved compared with control group,[2]; span 80 3 g/L,69.7%
same,Content of ergothioneine in fermentation broth,[2]; span 80 3 g/L added in fermentation medium,196.5 mg/L and 196.5 ± 3.54 mg/L
same,Content of ergothioneine in fermentation broth,[2]; span 80 5 g/L added in fermentation medium,184.3 ± 3.7 mg/L
same,Content of ergothioneine in fermentation broth,[2]; span 80 10 g/L added in fermentation medium,129.6 ± 1.18 mg/L
tween 60,Content of ergothioneine in fermentation broth,[2]; tween 60 2 g/L added in fermentation medium,128.8 ± 1.51 mg/L
same,Content of ergothioneine in fermentation broth,[2]; tween 60 5 g/L added in fermentation medium,173.6 ± 2.98 mg/L
same,content of ergothioneine improved compared with control group,[2]; tween 60 10 g/L,74.9%
same,Content of ergothioneine in fermentation broth,[2]; tween 60 10 g/L added in fermentation medium,212.7 mg/L and 212.7 ± 4.52 mg/L
same,Content of ergothioneine in fermentation broth,[2]; tween 60 20 g/L added in fermentation medium,184.4 ± 3.78 mg/L
same,Content of ergothioneine in fermentation broth,[2]; tween 60 40 g/L added in fermentation medium,154.2 ± 2.63 mg/L
same,Content of ergothioneine in fermentation broth,[2]; tween 60 50 g/L added in fermentation medium,129.1 ± 2.1 mg/L
same,content of extracellular ergothioneine in the filtrate,[1]; tween 60 5 g/L (highest),16.24 mg/L
